By viability is commonly meant a read-out of living cells in per cent, often relative to untreated cells.

This is an account of results in patent US11415571B2, “Large scale organoid analysis” (Tempus Labs, Inc., priority 2019, dated 2022).

The subject of test [1] is colorectal cancer tumor organoid line. As to the kind of experiment: high throughput tumor organoid drug screen, per-organoid viability histogram. Particulars: caspase 3/7 readout, 10,000 nM dose. The class given is cell-based, human. As to the method: (§1) TOs were dissociated as described above and resuspended in a 30:70% mix of GFR Matrigel:growth media at a concentration of 100 cells/μl. The solution was added to 384-well assay plates (Corning) at 20 μl per well for a final concentration of 2,000 cells per well. Assay plates were covered with a Breathe-Easy sealing membrane (Sigma Aldrich) to prevent evaporation. TOs were grown for 72 hours before drug addition. Drugs were prepared in growth media with 2.5 μM Caspase-3/7 Green Apoptosis Assay Reagent (Essen Bioscience). Serial dilutions of each molecule were prepared in 384-well polystyrene plates (Nunc). Diluted drug was added to the assay plate using an Integra Viaflo pipette (Integra) mounted on an Integra Assist Plus Pipetting Robot (Integra). Assay plates were again covered with a Breathe-Easy sealing membrane and TOs were exposed to drugs for another 72 hours before imaging.
(§2) Prior to imaging, TOs were incubated with 4 μM Hoechst 33342 (Fisher Scientific) and 300 nM TO-PRO-3 Iodide (642/661) (Invitrogen) for 1.5-2 hours. Assay plates were imaged using an ImageXpress Micro Confocal (Molecular Devices) at 10× magnification so that ˜100-200 TOs were imaged per well. Images were acquired as 4×15 μm Z-stacks and the 2D projections were analyzed to assess cell viability. Confocal images were analyzed using the MetaXpress software (Molecular Devices) custom module editor feature to design an analysis module that identified TOs by clusters of Hoechst 33342 staining, individual cells by Hoechst 33342 staining, and dead/dying cells by either TO-PRO-3 or Caspase-3/7 staining. The result of this analysis module is a spreadsheet detailing the number of live and dead cells for every individual organoid.
(§3) The percentage of viable cells per organoid was calculated based on the image analysis described above. Organoids with fewer than three cells and larger than the top one percent by size were excluded from analysis. The mean viability for all organoids at a given drug concentration was used in dose-response curves to calculate AUC. AUC was calculated using the computeAUC function using settings for “actual” AUC of the R Package PharmacoGx (v1.17.1). Heatmaps of AUC values were generated using the Pheatmap package (v1.0.12) in R. Scatterplots of AUC values were generated using the ggplot2 package (v3.3.0) in R.
(§4) In this example, data for each therapy is presented as a histogram. […] Viability was determined by the systems and methods disclosed above.
(§5) Each tumor organoid line in these examples was cultured individually in wells of a tissue culture plate, as described above.
In this example, tissue culture wells containing a colorectal cancer tumor organoid line were each exposed to one of the therapies listed above.

Test [2] has as its system second lung cancer tumor organoid line. The test is described as above. The protocol:
as §1, §2, §3, §4, §5
In this example, tissue culture wells containing a second lung cancer tumor organoid line were each exposed to one of the therapies listed above.

In test [3] the test system is colon cancer tumor organoid line. Described as above. The class given is cell-based, human. The following applies: caspase 3/7 readout, 10,000 nM dose. As to the method: as §1, §2, §3, §4, §5
In this example, tissue culture wells containing a colon cancer tumor organoid line were each exposed to one of the therapies listed above.

The subject of test [4] is tumor organoid culture line 10941-12002. Briefly: caspase 3/7 apoptosis assay, olaparib dilution series on tumor organoids. The class given is cell-based, human. Particulars: tumor without BRCA1 or BRCA2 mutation. As to the method:
(§6) Tumor biopsies were collected from four individuals: UK1393, 10423-12001, 10524-12001, and 10941-12002. The tumors were genotyped and determined not carry BRCA1 or BRCA2 mutations. As such, according to conventional guidance, the tumors are not indicated for first-line therapy with a PARP inhibitor. In order to test whether these tumors may still be sensitive to PARP inhibitors, despite not carrying a BRCA1 or BRCA2 mutation, tumor organoids were cultured using cells from the biopsied material.
(§7) Briefly, cells within each of the biopsied tumor samples were dissociated and cultured to establish a tumor organoid culture line from the tumor of each individual. Single tumor organoids from the tumor organoid culture lines were collected and plated, individually, into wells of a multiwell plate with culture medium. A series of six concentrations of olaparib, in a 5-fold serial dilution, were established for the tumor organoids derived from each individual, as well as negative controls. After incubation with olaparib, a caspase 3/7 apoptosis assay was performed in each well, to determine the sensitivity of each tumor organoid to the respective concentration of olaparib. Results of the […] dilution series experiments are plotted in FIG. 3.

The subject of test [5] is tumor organoid culture line 10423-12001. Described as above. The following applies: tumor without BRCA1 or BRCA2 mutation. The class given is cell-based, human. The protocol:
as §6, §7

In test [6] the test system is tumor organoid culture line 10524-12001. The test is described as above. Particulars: tumor without BRCA1 or BRCA2 mutation. The format is cell-based, human. The protocol: as §6, §7
Test [7] deals with tumor organoid culture line UK1393. The test is described as above. The format is cell-based, human. Particulars: tumor without BRCA1 or BRCA2 mutation. As to the method: as §6, §7
[8] abbreviates: Homo sapiens, read-out: mean viability for all organoids in the plot.
Where [9] appears, read: caspase 3/7 readout, 10,000 nM dose.

Take `CC(=O)O[C@@]12CO[C@@H]1C[C@H](O)[C@@]1(C)C(=O)[C@H](O)C3=C(C)[C@@H](OC(=O)[C@H](O)[C@@H](NC(=O)OC(C)(C)C)c4ccccc4)C[C@@](O)([C@@H](OC(=O)c4ccccc4)[C@H]21)C3(C)C` [Docetaxel]: the values for the viability at 10 µM in test [1] (setting [8]), in test [2] (setting [8]) and in test [3] (setting [8]) were approximately 45%, approximately 30% and approximately 20%, respectively. Besides, the “organoids of the line that are resistant to the drug” value in test [1] is recorded as “presence of organoids”; in test [2] (setting [9]), “presence of a small proportion”; in test [3], “general absence”. In addition, the results for the “organoids with 0% viability (susceptible to the drug)” value in test [1], in test [2] (setting [9]) and in test [3] were “Approximately 35 organoids”, “Approximately 50 organoids” and “Approximately 70 organoids”, respectively. Moreover, the “organoids with 100% viability (resistant to the drug)” value in test [1] is “Approximately 30 organoids”; in test [2] (setting [9]), “Approximately 20 organoids”; in test [3] it was “Approximately 15 organoids”.

In the case of `O=C(c1cc(Cc2n[nH]c(=O)c3ccccc23)ccc1F)N1CCN(C(=O)C2CC2)CC1` [Olaparib], the sensitivity to olaparib result in test [4], in test [5] and in test [6] was “fairly insensitive” in each case. Moreover, the “sensitivity to olaparib compared with the other tumor organoid culture lines” value in test [7] is “more than 100 fold”.
